This note sets out measurements from ChEMBL document CHEMBL1201862, “PubChem BioAssay data set” (2004).

Activity calls are given as the source filed them. Cut-off read from the data, not from the text of the source, for most assays here: actives have a measured EC50 and inactives only a lower limit.

A short description of assay [1]: luciferase reporter signal suppression in cells – H4 neuroglioma cells, luminescence, dose response (AID 1990). Type of assay: functional, cell-based.
Assay [2] can be described thus: Luminescence Cell-Based Dose Response HTS to Identify Inhibitors of 5'UTR Stem-Loop Driven Prion Protein mRNA Translation in H4 Neuroglioblastoma Cells. [Related pubchem assays: 1827 (Project Summary), 1813 (Primary HTS)]. Type of assay: functional.
A short description of assay [3]: alpha-synuclein stem-loop luciferase translation blockers – H4 neuroglioma cells, luminescence, confirmation (AID 1988). The format is functional, cell-based.
A short description of assay [4]: viability of PTEN-deleted HCT116 cells – cell-based, HCT116 PTEN knockout, dose response (AID 1047).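 Note: HCT116 colon tumor cells with PTEN knocked out; cells exposed to compound for 60 hours before readout; potency for loss of cell viability measured by luminescence.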 The format is functional.
Assay [5] is described as follows: viability of HCT116 lacking mutant beta-catenin – cell-based, human colon tumor, dose response (AID 1045).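 Note: HCT116 colon tumor cells with beta catenin knocked out; cells exposed to compound for 60 hours.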 Type of assay: functional.
For assay [6], the target named is T1, Replicative DNA helicase DnaB (Mycobacterium tuberculosis, UniProt P9WMR3).
T1 sequence (P9WMR3 whole entry): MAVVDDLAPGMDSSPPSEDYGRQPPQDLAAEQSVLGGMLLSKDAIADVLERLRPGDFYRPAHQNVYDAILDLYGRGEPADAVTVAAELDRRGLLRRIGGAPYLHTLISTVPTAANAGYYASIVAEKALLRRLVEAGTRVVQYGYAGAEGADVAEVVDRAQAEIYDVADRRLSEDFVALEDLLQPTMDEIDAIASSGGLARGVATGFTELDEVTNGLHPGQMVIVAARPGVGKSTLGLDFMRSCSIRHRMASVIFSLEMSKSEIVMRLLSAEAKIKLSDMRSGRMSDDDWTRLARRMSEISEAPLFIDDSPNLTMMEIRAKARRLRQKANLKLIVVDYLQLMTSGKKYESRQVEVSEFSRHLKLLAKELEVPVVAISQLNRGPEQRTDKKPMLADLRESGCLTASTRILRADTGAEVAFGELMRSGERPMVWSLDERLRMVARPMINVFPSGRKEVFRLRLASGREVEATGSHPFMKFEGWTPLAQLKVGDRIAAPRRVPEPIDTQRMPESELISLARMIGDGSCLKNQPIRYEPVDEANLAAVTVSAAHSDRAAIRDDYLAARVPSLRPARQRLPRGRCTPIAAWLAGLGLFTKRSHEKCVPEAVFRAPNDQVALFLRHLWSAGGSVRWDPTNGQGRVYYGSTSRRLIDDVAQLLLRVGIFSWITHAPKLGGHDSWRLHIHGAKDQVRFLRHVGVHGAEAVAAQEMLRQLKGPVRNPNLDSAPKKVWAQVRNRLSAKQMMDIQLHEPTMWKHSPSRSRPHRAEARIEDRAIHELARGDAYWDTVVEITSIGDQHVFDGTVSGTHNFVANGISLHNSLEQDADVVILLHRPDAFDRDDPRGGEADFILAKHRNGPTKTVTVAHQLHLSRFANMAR
The experiment in a line: DnaB intein splicing inhibitors, dose response, biochemical, cell-free fluorescence (AID 449749). The format is functional.

For the next assay, the target named is T2, Protein RecA (Mycobacterium tuberculosis, UniProt P9WHJ3).
T2 sequence (P9WHJ3 whole entry): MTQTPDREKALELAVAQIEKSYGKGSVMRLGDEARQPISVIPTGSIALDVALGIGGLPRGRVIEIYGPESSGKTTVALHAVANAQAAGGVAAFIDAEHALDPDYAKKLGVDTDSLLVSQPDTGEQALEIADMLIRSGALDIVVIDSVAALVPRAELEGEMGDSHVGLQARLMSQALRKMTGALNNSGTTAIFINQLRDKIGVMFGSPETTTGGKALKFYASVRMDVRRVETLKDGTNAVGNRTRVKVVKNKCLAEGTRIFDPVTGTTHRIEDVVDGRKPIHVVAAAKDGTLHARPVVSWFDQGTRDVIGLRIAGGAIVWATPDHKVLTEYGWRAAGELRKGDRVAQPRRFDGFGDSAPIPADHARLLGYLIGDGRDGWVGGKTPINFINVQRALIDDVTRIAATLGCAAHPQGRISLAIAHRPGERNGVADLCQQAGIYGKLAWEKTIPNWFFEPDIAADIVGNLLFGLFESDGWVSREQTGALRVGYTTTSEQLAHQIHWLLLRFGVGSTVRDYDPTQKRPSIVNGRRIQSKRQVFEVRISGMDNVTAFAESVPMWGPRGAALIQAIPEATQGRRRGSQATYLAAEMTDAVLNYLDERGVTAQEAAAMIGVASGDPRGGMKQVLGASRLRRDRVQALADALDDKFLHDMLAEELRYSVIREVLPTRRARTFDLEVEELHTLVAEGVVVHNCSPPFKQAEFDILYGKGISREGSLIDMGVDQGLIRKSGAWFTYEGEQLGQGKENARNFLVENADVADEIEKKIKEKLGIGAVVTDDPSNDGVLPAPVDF
Description: Fluorescence Cell-Free Homogeneous Dose Retest to Identify Inhibitors of RecA-Intein Splicing Activity. [Related pubchem assays (depositor defined):AID2097, AID2223, AID489010, AID492950]. The format is functional.

For assay [7], the target named is T3, Corticotropin-releasing factor receptor 2/Corticotropin-releasing factor-binding protein (Homo sapiens, UniProt P24387+Q13324).
T3 sequence (Q13324 whole entry): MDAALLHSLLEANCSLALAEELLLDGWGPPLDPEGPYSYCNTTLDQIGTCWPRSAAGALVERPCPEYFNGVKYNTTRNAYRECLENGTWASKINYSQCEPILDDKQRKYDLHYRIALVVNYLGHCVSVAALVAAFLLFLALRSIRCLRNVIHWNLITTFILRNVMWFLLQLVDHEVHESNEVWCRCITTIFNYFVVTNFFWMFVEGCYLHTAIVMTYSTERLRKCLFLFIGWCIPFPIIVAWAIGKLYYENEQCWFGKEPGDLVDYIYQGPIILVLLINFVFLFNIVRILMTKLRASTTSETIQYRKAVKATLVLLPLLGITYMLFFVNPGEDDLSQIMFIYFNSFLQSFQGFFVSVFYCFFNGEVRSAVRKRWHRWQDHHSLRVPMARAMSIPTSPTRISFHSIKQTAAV
T3 sequence (P24387 whole entry): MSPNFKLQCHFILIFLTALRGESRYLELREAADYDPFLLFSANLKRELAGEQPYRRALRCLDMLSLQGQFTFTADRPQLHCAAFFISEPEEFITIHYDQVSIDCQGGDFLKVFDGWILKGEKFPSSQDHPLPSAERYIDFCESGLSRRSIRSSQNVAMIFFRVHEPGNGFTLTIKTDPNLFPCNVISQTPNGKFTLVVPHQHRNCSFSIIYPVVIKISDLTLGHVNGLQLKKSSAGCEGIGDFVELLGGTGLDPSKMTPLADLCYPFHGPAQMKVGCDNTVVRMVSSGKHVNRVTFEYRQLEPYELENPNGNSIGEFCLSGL
Description: activators of CRF receptor 2 with binding protein – uHTS hits, confirmation (AID 602473). Type of assay: functional. The following applies: read-out: EC50_Mean.

A short description of assay [8]: Trypanosoma cruzi growth suppression in host cells – NIH3T3 host cells, beta-gal luminescence, confirmation (AID 2044).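 Note: intracellular parasites grown in NIH/3T3 mouse fibroblasts as host cells; luminescent beta-galactosidase reporter signal from transgenic T. cruzi replicating inside host cells; inhibitors lower the luminescence signal.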 Type of assay: functional, cell-based.
A short description of assay [9]: NIH3T3 cell viability loss – ATP luminescence, mouse fibroblasts, counter-screen, dose response (AID 2010).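 Note: cells exposed to compound for about 90 hours before reading.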 Type of assay: functional, cell-based.
Assay [10] can be described thus: Luminescence Cell-Based Dose Retest to Confirm Inhibitors of Cancer Stem Cells. [Related pubchem assays (depositor defined):AID2717, AID2721]. The following applies: Homo sapiens. Type of assay: functional.
Assay [11] concerns Streptococcus sp. 'group A'. Description: Streptococcus pyogenes SK(-)GAS viability under kanamycin – luminescence, BacTiterGlo, confirmation, counter-screen for streptokinase expression inhibitor project, dose response (AID 1900). Type of assay: functional, organism-based.
The next assay deals with T4, Streptokinase A (Streptococcus pyogenes serotype M1, UniProt P10520).
T4 sequence (P10520 whole entry): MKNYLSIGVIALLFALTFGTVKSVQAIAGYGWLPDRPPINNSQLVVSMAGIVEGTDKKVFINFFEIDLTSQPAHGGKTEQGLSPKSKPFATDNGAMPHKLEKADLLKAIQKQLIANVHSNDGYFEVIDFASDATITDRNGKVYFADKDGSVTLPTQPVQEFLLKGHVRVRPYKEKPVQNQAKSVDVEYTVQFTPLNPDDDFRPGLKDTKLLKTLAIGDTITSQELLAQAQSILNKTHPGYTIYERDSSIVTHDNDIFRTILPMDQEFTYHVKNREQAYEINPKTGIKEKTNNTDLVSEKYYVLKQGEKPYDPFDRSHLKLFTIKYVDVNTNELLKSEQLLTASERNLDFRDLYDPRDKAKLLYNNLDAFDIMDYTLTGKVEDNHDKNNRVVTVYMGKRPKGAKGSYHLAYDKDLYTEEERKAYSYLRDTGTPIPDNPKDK
Description: viability-normalized secreted streptokinase activity reduction – plasminogen activation absorbance, OD405, dose response (AID 1914).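 Note: secreted streptokinase activity via plasminogen activation per viability signal from cell pellet.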 Type of assay: functional, Streptococcus pyogenes M1 GAS.

The test system of the next assay is Streptococcus. Description: GAS UMAA2166 growth inhibition – luminescence, BacTiterGlo, counter-screen for streptokinase expression inhibitor project, dose response (AID 1915).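 Note: potency for reduction of bacterial viability or growth.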 The format is functional, organism-based.

Take `COc1ccc(F)cc1CN1CCN(c2ncnc3scc(-c4ccccc4)c23)CC1`: the EC50 in [1] is 15.8 µM (active); in assay [2], 23.9 µM (active); in assay [3], 15.6 µM (active).
Turning to `O=C(CSc1nnc(-c2ccc3c(c2)OCO3)o1)Nc1ncc(Cl)cc1Cl`, the figures for the EC50 in assay [4] and in [5] were 11.4 µM (active) and 9.18 µM (active), respectively.
Take `CC(C)(C)OC(=O)N1CC=C2C(C#N)=C(N)C(C#N)(C#N)C(c3cccs3)C2C1` (stereo not drawn): the AC50 in assay [6] was > 380 µM (inactive). Besides, the EC50 at Protein RecA was 5.1 µM (active).
With `CCOc1ccc(NC(=O)c2cn(CC(C)C)c(=O)c3c2c2ccccc2n3C)cc1`, the EC50 in assay [4] is 10 µM (active); in assay [5] it was 13.4 µM (active).
Regarding `Cc1cccc(C(=O)NC2C(=O)NNC2c2ccc(Cl)cc2)c1` (stereo not drawn), in [6], the AC50 was 18.7 µM (active). The EC50 at Protein RecA is 18.9 µM (active).
Consider `O=S(=O)(Nc1ccc(-n2cnnn2)cc1)c1ccc(F)c(F)c1F`, for which, in assay [6], the AC50 is > 380 µM (inactive). Further, on Protein RecA, the EC50 is > 380 µM (inactive).
For the molecule `CC(C)Nc1nc(N=C(N)S)nc(NC(C)C)n1`, the EC50 in [1], in assay [2] and in assay [3] was > 120 µM (not active) in each case.
For the molecule `Cc1ccc(C)c2sc(NC(=O)c3ccc(N4C(=O)CCC4=O)cc3)nc12`, the EC50 in [7] is > 53 µM (inactive).
On to `Cc1ccc(S(=O)(=O)N2CCOC23CCN(C(=O)c2ccc(Cl)cc2Cl)CC3)cc1`, for which the EC50 in assay [1] is > 120 µM (not active); in [2], 17.7 µM (active); in assay [3], 13.8 µM (active).
With `CCOC(=O)/C(=C/C=C1\Sc2ccccc2N1CC)C(C)=O`, the EC50 in assay [7] is 11.5 µM (active).
On to `O=C(Nc1ccc(NC(=O)c2sc3ccccc3c2Cl)cc1)c1ccco1`, for which the EC50 in [4] was 9.27 µM (active); in assay [5] it was 9.19 µM (active).
`CCCn1c(=O)c(C(=O)NNC(=O)c2ccc(Cl)cc2Cl)c(O)c2ccccc21`: in [7], the EC50 was 4.01 µM (active).
Turning to `Cn1c(C(=O)NCCCN2CCN(c3ccccc3F)CC2)cc2c(=O)n(C)c3ccccc3c21`, the values for the EC50 in assay [4] and in assay [5] were 17.2 µM (active) and 17.7 µM (active), respectively.
Take `CC1CN(CCCCOc2cccc(Oc3ccccc3)c2)CC(C)O1` (stereo not drawn): the EC50 in assay [8] was 1.01 µM (active); in [9], > 60 µM (inconclusive). In addition, in assay [10], the AC50 was 13.3 µM (active).
Take `Clc1ccc(CN(Cc2ccccc2)C(c2cccs2)c2nnnn2C2CCCC2)cc1` (stereo not drawn): the EC50 in assay [4] was 53.2 µM (active); in assay [5], 32.8 µM (active).
For the molecule `COc1cc(C2C(C#N)=C(N)Oc3[nH]nc(C)c32)ccc1OC(=O)c1ccccc1` (stereo not drawn), in assay [6], the AC50 is 20.3 µM (active). For the same molecule, the EC50 at Protein RecA is 17.3 µM (active).
`CCOc1cc(NC(=O)c2ccccc2C)c(OCC)cc1NC(=O)C1=Cc2ccccc2OC1`: the figures for the EC50 in [1], in assay [2] and in assay [3] were > 120 µM (not active), 18.7 µM (active) and 9.61 µM (active), respectively.
As for `CC(C)(C)c1ccc(/C=C/C(=O)c2ccc(NC3=NCCCS3)cc2)cc1`, the EC50 in assay [8] is 2.08 µM (active); in assay [4], 6.9 µM (active); in [9], > 60 µM (not active); in assay [5], 4.92 µM (active). In addition, in assay [10], the AC50 was 2.63 µM (active).
`COC(=O)c1sccc1NC(=O)c1cc(-c2cccc(C)c2)nc2ccccc12`: the EC50 in assay [4] was 6.74 µM (active); in [5], 8.24 µM (active).
Regarding `Cc1ccc2oc(=O)c(/C=C(\O)c3sc(C)nc3C)nc2c1`, in assay [7], the EC50 was 7.67 µM (active).
Consider `CC1CCc2c(c3ccccc3n2C(=O)CCl)C1` (stereo not drawn), for which the AC50 in assay [6] was > 380 µM (inactive). Moreover, on Protein RecA, the EC50 was 0.751 µM (active).
Turning to `CC1(C)CC(=O)C(C2C3=C(CC(C)(C)CC3=O)Oc3c(Br)cc(Br)cc32)=C(O)C1` (stereo not drawn), the EC50 in [11] is 4.66 µM (active); at Streptokinase A, 24.8 µM (active); in the assay with Streptococcus, 12.2 µM (active); in assay [7] it was 10.3 µM (active).
Take `CCc1cc2c(SCC(=O)Nc3ccc(Cl)cn3)ncnc2s1`: the EC50 in assay [4] was 31.9 µM (active); in [5], 71.3 µM (active).
As for `Cc1ccc2[nH]c(SCC3CCCCO3)nc2c1` (stereo not drawn), the EC50 in [2] is > 60 µM (inconclusive).
